Results as given in patent US20030109522A1, “Ophthalmologic treatment methods using selective iNOS inhibitors” (priority 2001, published 2003).
Counter-ions that a name gives are not always drawn. Like-named read-outs stand apart in the source and are kept apart here.

Experiments:
[1] = tested on: LPS-induced increase in plasma nitrite/nitrate levels; test: In vivo assay, endotoxin-treated rats; conditions: administered orally, plasma nitrite/nitrate 5 hours post-treatment
Method: Plasma nitrite/nitrate levels can be determined 5 hours post-treatment.

[2] = target: T1, Human inducible NOS (hiNOS) (Homo sapiens, UniProt P35228); test: Citrulline assay for nitric oxide synthase, hiNOS; assay type: biochemical; conditions: averages across all experiments and all lots; 30 μM L-arginine
T1 construct: made in house; host or cells: Sf9 insect cells, baculovirus vector
Method: (§3) Citrulline Assay for Nitric Oxide Synthase
(§4) To measure NOS activity, 10 μL of enzyme is added to 40 μL of 50 mM Tris (pH 7.6) in the presence or absence of test compounds and the reaction initiated by the addition of 50 μL of a reaction mixture containing 50 mM Tris (pH 7.6), 2.0 mg/mL bovine serum albumin, 2.0 mM DTT, 4.0 mM CaCl2, 20 μM FAD, 100 μM tetrahydrobiopterin, 0.4 mM NADPH and 60 μL-arginine containing 0.9 μCi of L-[2,3-^3H]-arginine. The final concentration of L-arginine in the assay is 30 μM. For hecNOS or hncNOS, calmodulin is included at a final concentration of 40-100 nM. Following incubation at 37° C. for 15 minutes, the reaction is terminated by addition of 400 μL of a suspension (1 part resin, 3 parts buffer) of Dowex 50W X-8 cation exchange resin in a stop buffer containing 10 mM EGTA, 100 mM HEPES, pH 5.5 and 1 mM L-citrulline. After mixing the resin is allowed to settle and L-[2,3-^3H]-Citrulline formation is determined by counting aliquots of the supernatant with a liquid scintillation counter.

[3] = target: T2, human endothelial constitutive NOS (hecNOS) (Homo sapiens, UniProt P29474); test: Citrulline assay for nitric oxide synthase, hecNOS; assay type: biochemical; conditions: averages across all experiments and all lots; 30 μM L-arginine
T2 construct: made in house; host or cells: Sf9 insect cells, baculovirus vector
Method: as §3, §4

[4] = target: T3, human neuronal constitutive NOS (hncNOS) (Homo sapiens, UniProt P29475); test: Citrulline assay for nitric oxide synthase, hncNOS; assay type: biochemical; conditions: averages across all experiments and all lots; 30 μM L-arginine
T3 construct: made in house; host or cells: Sf9 insect cells, baculovirus vector
Method: as §3, §4

[5] = tested on: nitrite production in human cartilage explants; test: Human cartilage explant assay (IL-1 induced nitrite production); assay type: cell-based; conditions: inhibition of nitrite production, IL-1 stimulated explants
Method: Human Cartilage Explant Assay
Bone pieces are rinsed twice with Dulbecco's Phosphate Buffered Saline (GibcoBRL) and once with Dulbecco's Modified Eagles Medium (GibcoBRL) and placed into a petri dish with phenol red free Minimum Essential Medium (MEM) (GibcoBRL). Cartilage was cut into small explants of approximately 15-45 mg in weight and one or two explants per well are placed into either 96 or 48 well culture plates with 200-500 μL of culture media per well. The culture media was either a custom modification of Minimum Essential Medium(Eagle) with Earle's salts (GibcoBRL) prepared without L-Arginine, without L-Glutamine and without phenol red or a custom modification of serumless Neuman and Tytell (GibcoBRL) medium prepared without L-arginine, without insulin, without ascorbic acid, without L-glutamine and without phenol red. Both are supplemented before use with 100 μM L-Arginine (Sigma), 2 mM L-glutamine, 1×HL-1 supplement (BioWhittaker), […] ascorbic acid (Sigma) and 150 pg/ml recombinant human IL-1[…] (RD Systems) to induce nitric oxide synthase. Compounds are then added in 10 μL aliquots and the explants incubated at 37° C. with 5% CO2 for 18-24 hours. The day old supernatant is then discarded and replaced with fresh culture media containing recombinant human IL-1 ? and compound and incubated for another 20-24 hours. […] All samples are done in quadruplicate. Unstimulated controls are cultured in media in the absence of recombinant human IL-1[…]. IC50 values (Table I) are determined from plotting the percent inhibition of nitrite production at six different concentrations of inhibitor.

hiNOS = target: T4, hiNOS (Homo sapiens, UniProt P35228); test: Assay for time dependent inhibition, hiNOS; assay type: biochemical
T4 construct: made in house; host or cells: Sf9 insect cells, baculovirus vector
Method: (§1) Assay for Time Dependent Inhibition
(§2) Aliquots (10 μL) are removed at 0, 10,21 and 60 minutes and immediately added to a citrulline assay enzyme reaction mixture containing L-[2,3-^3H]-arginine and a final L-arginine concentration of 30 μM in a final volume of 100 μL. The reaction is allowed to proceed for 15 minutes at 37° C. and terminated by addition of stop buffer and chromatography with Dowex 50W X-8 cation exchange ion exchange resin as described for the citrulline NOS assay. The % inhibition of NOS activity by an inhibitor was taken as the percent inhibition in activity compared to control enzyme preincubated for the same time in the absence of inhibitor.

hecNOS = target: T5, hecNOS (Homo sapiens, UniProt P29474); test: Assay for time dependent inhibition, hecNOS; assay type: biochemical
T5 construct: made in house; host or cells: Sf9 insect cells, baculovirus vector
Method: as §1, §2

hncNOS = target: T6, hncNOS (Homo sapiens, UniProt P29475); test: Assay for time dependent inhibition, hncNOS; assay type: biochemical
T6 construct: made in house; host or cells: Sf9 insect cells, baculovirus vector
Method: as §1, §2

retinal ganglion cells = conditions: rats with chronic moderately elevated IOP; cited from earlier work
[6] = Rattus norvegicus, po, read-out: ED50

T2 sequence (P29474 2-1203): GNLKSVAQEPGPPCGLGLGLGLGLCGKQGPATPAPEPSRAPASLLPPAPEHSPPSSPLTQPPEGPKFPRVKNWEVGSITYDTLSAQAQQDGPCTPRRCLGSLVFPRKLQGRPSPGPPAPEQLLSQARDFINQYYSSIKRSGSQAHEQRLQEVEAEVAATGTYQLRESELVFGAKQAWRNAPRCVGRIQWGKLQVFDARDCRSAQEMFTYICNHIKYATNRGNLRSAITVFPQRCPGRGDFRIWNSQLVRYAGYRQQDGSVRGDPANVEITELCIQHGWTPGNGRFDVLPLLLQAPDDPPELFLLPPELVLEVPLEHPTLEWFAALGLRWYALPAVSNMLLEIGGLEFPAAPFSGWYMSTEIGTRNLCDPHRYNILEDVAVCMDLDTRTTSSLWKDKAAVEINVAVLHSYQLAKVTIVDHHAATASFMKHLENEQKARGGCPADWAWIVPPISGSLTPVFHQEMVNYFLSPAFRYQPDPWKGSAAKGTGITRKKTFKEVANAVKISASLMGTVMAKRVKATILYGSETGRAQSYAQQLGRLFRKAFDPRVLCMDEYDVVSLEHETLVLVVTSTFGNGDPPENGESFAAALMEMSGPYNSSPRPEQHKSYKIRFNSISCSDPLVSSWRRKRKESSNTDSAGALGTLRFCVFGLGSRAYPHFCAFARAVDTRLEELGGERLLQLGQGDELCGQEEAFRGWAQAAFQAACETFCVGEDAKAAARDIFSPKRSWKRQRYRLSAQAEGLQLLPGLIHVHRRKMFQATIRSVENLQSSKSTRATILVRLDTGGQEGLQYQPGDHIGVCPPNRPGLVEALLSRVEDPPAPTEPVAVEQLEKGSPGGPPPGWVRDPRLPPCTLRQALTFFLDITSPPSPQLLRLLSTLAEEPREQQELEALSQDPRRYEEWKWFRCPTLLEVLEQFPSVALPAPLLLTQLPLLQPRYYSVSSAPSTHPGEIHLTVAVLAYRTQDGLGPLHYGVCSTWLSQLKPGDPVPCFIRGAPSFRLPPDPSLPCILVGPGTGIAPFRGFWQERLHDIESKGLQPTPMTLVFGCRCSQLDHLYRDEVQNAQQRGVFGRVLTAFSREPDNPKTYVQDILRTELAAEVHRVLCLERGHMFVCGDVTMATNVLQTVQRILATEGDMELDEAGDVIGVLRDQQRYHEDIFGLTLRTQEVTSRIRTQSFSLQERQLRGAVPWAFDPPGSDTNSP
T1 sequence (P35228 whole entry): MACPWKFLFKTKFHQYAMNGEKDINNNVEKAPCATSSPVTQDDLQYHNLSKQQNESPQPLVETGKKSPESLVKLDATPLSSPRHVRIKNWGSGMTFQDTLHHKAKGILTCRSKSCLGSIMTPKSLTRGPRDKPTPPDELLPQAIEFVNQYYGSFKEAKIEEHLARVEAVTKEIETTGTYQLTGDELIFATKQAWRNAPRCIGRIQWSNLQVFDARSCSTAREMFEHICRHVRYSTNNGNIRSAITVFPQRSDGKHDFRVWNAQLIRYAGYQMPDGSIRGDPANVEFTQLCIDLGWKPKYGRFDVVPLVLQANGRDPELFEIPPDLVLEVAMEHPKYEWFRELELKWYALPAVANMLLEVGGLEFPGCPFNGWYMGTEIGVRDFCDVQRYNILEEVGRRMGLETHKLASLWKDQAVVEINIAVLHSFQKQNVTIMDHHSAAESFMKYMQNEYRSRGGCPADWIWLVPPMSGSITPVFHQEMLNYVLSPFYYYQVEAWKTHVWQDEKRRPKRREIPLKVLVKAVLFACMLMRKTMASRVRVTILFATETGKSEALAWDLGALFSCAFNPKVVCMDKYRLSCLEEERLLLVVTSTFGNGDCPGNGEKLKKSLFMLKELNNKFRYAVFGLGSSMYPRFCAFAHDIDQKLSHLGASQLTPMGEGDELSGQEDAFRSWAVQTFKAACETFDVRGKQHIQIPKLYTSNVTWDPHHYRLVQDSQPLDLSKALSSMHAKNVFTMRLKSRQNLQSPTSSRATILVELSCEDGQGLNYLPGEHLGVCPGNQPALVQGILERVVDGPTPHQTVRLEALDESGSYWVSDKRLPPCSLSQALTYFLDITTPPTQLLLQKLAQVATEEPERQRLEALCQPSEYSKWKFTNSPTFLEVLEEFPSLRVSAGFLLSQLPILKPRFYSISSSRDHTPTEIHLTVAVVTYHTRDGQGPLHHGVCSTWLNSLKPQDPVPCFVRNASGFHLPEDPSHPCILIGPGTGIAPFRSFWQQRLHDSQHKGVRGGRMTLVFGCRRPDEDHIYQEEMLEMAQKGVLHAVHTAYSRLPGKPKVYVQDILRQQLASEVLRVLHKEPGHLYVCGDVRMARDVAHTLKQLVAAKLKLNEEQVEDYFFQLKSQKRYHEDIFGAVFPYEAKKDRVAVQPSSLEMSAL
T3 sequence (P29475 whole entry): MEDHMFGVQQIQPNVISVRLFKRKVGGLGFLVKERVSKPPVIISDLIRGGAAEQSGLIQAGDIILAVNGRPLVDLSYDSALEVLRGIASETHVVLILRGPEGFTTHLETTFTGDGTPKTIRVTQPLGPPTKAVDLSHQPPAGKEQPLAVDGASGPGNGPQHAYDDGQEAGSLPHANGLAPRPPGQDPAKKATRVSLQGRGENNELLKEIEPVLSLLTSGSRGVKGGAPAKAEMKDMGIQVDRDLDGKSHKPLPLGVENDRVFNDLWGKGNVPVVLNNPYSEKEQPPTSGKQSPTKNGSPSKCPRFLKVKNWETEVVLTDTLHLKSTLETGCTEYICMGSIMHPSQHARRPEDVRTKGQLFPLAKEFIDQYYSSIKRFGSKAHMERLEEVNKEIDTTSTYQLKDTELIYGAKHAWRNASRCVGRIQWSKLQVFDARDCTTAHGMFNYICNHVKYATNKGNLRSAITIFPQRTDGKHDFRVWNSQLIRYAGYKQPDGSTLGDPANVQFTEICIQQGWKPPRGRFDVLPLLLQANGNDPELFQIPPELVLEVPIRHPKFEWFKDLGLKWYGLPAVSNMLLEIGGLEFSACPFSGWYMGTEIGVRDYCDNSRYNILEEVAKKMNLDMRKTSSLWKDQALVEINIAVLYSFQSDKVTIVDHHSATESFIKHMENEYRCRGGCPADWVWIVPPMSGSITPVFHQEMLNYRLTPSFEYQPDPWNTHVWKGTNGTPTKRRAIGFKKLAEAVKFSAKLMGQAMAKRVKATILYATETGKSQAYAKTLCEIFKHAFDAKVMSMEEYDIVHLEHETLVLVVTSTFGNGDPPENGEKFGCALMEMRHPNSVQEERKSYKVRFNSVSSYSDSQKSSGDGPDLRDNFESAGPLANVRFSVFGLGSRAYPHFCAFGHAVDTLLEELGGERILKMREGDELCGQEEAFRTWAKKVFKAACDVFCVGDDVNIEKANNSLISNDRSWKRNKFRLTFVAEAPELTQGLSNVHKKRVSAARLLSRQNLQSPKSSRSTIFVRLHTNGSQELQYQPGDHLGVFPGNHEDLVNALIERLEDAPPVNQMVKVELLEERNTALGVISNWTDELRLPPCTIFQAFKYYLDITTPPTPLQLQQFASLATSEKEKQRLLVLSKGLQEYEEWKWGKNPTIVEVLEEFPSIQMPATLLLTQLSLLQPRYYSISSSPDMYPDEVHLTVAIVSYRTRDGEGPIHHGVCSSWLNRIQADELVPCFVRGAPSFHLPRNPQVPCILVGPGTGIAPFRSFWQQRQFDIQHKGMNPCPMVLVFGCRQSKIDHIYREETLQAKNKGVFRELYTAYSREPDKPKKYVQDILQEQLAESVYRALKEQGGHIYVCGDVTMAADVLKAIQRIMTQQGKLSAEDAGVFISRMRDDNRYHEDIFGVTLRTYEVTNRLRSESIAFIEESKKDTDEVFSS

Row | SMILES | ED50 [1, 6] | IC50 [2] | IC50 [3] | IC50 [4] | IC50 ([5]; Homo sapiens) | further results
1 | CC(=NO)NC/C(F)=C\CC[C@H](N)C(=O)O [Example G, (2S,5E)-2-amino-6-fluoro-7-[(1-hydroximinoethyl)amino]-5-heptenoic Acid] | < 0.1 mg/kg | – | – | – | – | melting point: 198 to 200 °C
2 | CC(=N)NC/C=C/C[C@](C)(N)C(=O)O [Example EE, (S, E)-2-amino-2-methyl-6-[(1-iminoethyl)amino]-4-hexenoic Acid, Dihydrochloride] | 0.2 mg/kg | 1.4 µM | 18 µM | 5.8 µM | 0.5 µM | –
3 | CC(=N)NCC(F)=CCC[C@H](N)C(=O)O (mixture of isomers) [Example B, (2S,5E/Z)-2-amino-6-fluoro-7-[(1-iminoethyl)amino]-5-heptenoic Acid, Dihydrochloride] | – | – | – | – | 0.2 µM | –
4 | CC(=N)NC/C=C\CC[C@](C)(N)C(=O)O.Cl.Cl [Example LL, (2S,5Z)-2-amino-2-methyl-7-[(1-iminoethyl)amino]-5-heptenoic Acid, Dihydrochloride] | 0.3 mg/kg | 0.7 µM | 31 µM | 12 µM | 0.8 µM | –
5 | CC(=N)NC/C=C\CC[C@H](N)C(=O)O [Example T, (2S,5Z)-2-amino-7-[(1-iminoethyl)amino]-5-heptenoic Acid, Dihydrochloride] | – | – | – | – | 0.1 µM | –
6 | CC(=N)NC/C(F)=C\CCC(C)(N)C(=O)O (racemic) [Example KK, (2R/S,5E)-2-amino-2-methyl-6-fluoro-7-[(1-iminoethyl)amino]-5-heptenoic Acid, Dihydrochloride] | 0.3 mg/kg | 0.57 µM | 52 µM | 13 µM | – | –
7 | CC(=N)NC/C(F)=C\CC[C@H](N)C(=O)Nc1nnn[nH]1 [Example H, (2S,5E)-2-amino-6-fluoro-7-[(1-iminoethyl)amino]-N-(1H-tetrazol-5-yl) 5-heptenamide, Dihydrochloride] | < 0.3 mg/kg | – | – | – | – | –
8 | CC(=N)NC/C(F)=C\CC[C@](C)(N)C(=O)O.Cl.Cl [Example HH, (2S,5E)-2-amino-2-methyl-6-fluoro-7-[(1-iminoethyl)amino]-5-heptenoic Acid, Dihydrochloride] | 0.4 mg/kg | 0.4 µM | 37 µM | 7.6 µM | 0.4 µM | –
9 | CC(=N)NC/C=C/C[C@@](C)(N)C(=O)O [Example DD, (R, E)-2-amino-2-methyl-6-[(1-iminoethyl)amino]-4-hexenoic Acid, Dihydrochloride] | – | 10 µM | 74 µM | 31 µM | 1.8 µM | –
10 | CC(=N)NC/C=C\CC[C@@](C)(N)C(=O)O [Example MM, (2R,5Z)-2-amino-2-methyl-7-[(1-iminoethyl)amino]-5-heptenoic Acid, Dihydrochloride] | – | 121 µM | 1930 µM | 1480 µM | – | –
11 | N=C1CCCC[C@H](CCCC[C@H](N)C(=O)O)N1 [Example Z, ([…]S,2S)-[…]-aminohexahydro-7-imino-1H-azepine-2-hexanoic Acid, Trihydrate Hydrochloride] | < 5 mg/kg | – | – | – | – | inhibition at 2.2 µM (hiNOS; 21 min preincubation): 86%; inhibition at 2.2 µM (hiNOS; 60 min preincubation): 85%; inhibition at 15 µM (hecNOS; 21 min preincubation): 18%; inhibition at 15 µM (hecNOS; 60 min preincubation): 16%; inhibition at 3 µM (hncNOS; 3 μM, 21 min preincubation): 0%
12 | N=C1CCCC[C@H](C/C=C\C[C@H](N)C(=O)O)N1 [Example AA, (2S,4Z)-2-amino-6-[(2R)-hexahydro-7-imino-1H-azepin-2-yl]-4-hexenoic Acid] | < 10 mg/kg | < 3 µM | > 5 µM | < 3 µM | < 3 µM | inhibition at 2.2 µM (hiNOS; 21 min preincubation): 96%; inhibition at 2.2 µM (hiNOS; 60 min preincubation): 97%; inhibition at 2.2 µM (hecNOS; 2.2 μM, 60 min preincubation): 55%; inhibition at 5.7 µM (hecNOS; 5.7 μM, 21 min preincubation): 58%; inhibition at 0.9 µM (hncNOS; 21 min preincubation): 34%; inhibition at 0.9 µM (hncNOS; 60 min preincubation): 0%
13 | N=C1CCCC[C@@H](CCCC[C@H](N)C(=O)O)N1 [Example W, ([…]S,2R)-[…]-aminohexahydro-7-imino-1H-azepine-2-hexanoic Acid, Trihydrate Hydrochloride] | > 10 mg/kg | – | – | – | > 30 µM | inhibition at 4.2 µM (hiNOS; 21 min preincubation): 34%; inhibition at 4.2 µM (hiNOS; 60 min preincubation): 38%; inhibition at 173 µM (hecNOS; 21 min preincubation): 9%; inhibition at 173 µM (hecNOS; 60 min preincubation): 0%; inhibition at 13 µM (hncNOS; 13 μM, 21 min preincubation): 0%
14 | CC(=N)NC/C=C/CC(C)(N)C(=O)O (stereo not shown) [Example CC, (E)-2-amino-2-methyl-6-[(1-iminoethyl)amino]-4-hexenoic Acid, Dihydrochloride] | < 3 mg/kg | 2.9 µM | 29 µM | 9.9 µM | 0.5 µM | –
15 | N=C1CCCC[C@H](CCCC[C@H](N)C(=O)O)N1 [Example X, ([…]S,2S)-[…]-aminohexahydro-7-imino-1H-azepine-2-hexanoic Acid, Trihydrate Hydrochloride] | – | – | – | – | < 10 µM | –
16 | CC(=N)NC/C(F)=C/CC[C@H](N)C(=O)O [Example D, (2S,5Z)-2-amino-6-fluoro-7-[(1-iminoethyl)amino]-5-heptenoic Acid, Trihydrochloride, Dihydrate] | > 10 mg/kg | – | – | – | 2.5 µM | –
17 | N=C1CCCC[C@H](CCCC[C@@H](N)C(=O)O)N1 [Example V, ([…]R,2S)-[…]-aminohexahydro-7-imino-1H-azepine-2-hexanoic Acid, Trihydrate Hydrochloride] | < 3 mg/kg | – | – | – | < 10 µM | –
18 | N=C1CCCC[C@H](C/C=C/C[C@H](N)C(=O)O)N1 [Example BB, (2S,4E)-2-amino-6-[(2R)-hexahydro-7-imino-1H-azepin-2-yl]-4-hexenoic Acid] | – | < 10 µM | > 25 µM | < 10 µM | – | –
19 | N=C(N)NN [aminoguanidine] | – | – | – | – | – | loss of retinal ganglion cells (retinal ganglion cells): blocks loss of retinal ganglion cells
20 | CC(=N)NC/C(F)=C\CC[C@@](C)(N)C(=O)O [Example JJ, (2R,5E)-2-amino-2-methyl-6-fluoro-7-[(1-iminoethyl)amino]-5-heptenoic Acid, Dihydrochloride] | – | 56 µM | 352 µM | 584 µM | – | –
21 | COC[C@](N)(CSCCNC(C)=N)C(=O)O [Example J, 2-[[[2-1(1-Iminoethyl)amino]ethyl]thiolmethyl]-O-methyl-D-serine, Dihydrochloride] | – | – | – | – | – | IC50 [5]: 8.2 µM
22 | CC(=N)NCC#CCC(C)(N)C(=O)O (stereo not shown) [Example FF, 2-amino-2-methyl-6-[(1-iminoethyl)amino]-4-hexynoic Acid, Dihydrochloride] | – | 16 µM | 86 µM | 45 µM | – | –
23 | N=C1CCCC[C@H](CCCC[C@@H](N)C(=O)O)N1 [Example Y, ([…]R,2S)-[…]-aminohexahydro-7-imino-1H-azepine-2-hexanoic Acid, Trihydrate Hydrochloride] | – | – | – | – | – | IC50 [5]: < 10 µM; inhibition at 2.8 µM (hiNOS; 21 min preincubation): 75%; inhibition at 2.8 µM (hiNOS; 60 min preincubation): 76%; inhibition at 33 µM (hecNOS; 21 min preincubation): 11%; inhibition at 33 µM (hecNOS; 60 min preincubation): 11%; inhibition at 5 µM (hncNOS; 5 μM, 21 min preincubation): 0%
24 | CC(=N)NC/C(F)=C\CC[C@H](N)C(=O)O [Example A, (2S,5E)-2-amino-6-fluoro-7-[(1-iminoethyl)amino]-5-heptenoic Acid, Dihydrochloride, Monohydrate] | < 0.1 mg/kg | – | – | – | 0.1 µM | ED50 ([1]; Dihydrochloride, Monohydrate): <0.1 mg/kg
